These results are taken from paper PMC8518382, “Identification of a Bromodomain‐like Region in 15‐Lipoxygenase‐1 Explains Its Nuclear Localization” (Angewandte Chemie (International Ed. in English), 2021).

A word on the IC50: it is the point on the concentration scale where inhibition reaches its midpoint. For orientation: EC50 means the concentration needed to bring the measured effect to its halfway point.

One assay has as its system LOXs. Set-up: method as in PMID 17942241, PMID 16500106. The following applies: redox inhibitor for LOXs; read-out: IC50 in vitro; cited from earlier work.
The next assay concerns the target T1, 15-LOX-2 (Homo sapiens, UniProt O15296).
T1 construct: endogenous in cells; host or cells: A549 cell lysate
T1 sequence (O15296 1-676): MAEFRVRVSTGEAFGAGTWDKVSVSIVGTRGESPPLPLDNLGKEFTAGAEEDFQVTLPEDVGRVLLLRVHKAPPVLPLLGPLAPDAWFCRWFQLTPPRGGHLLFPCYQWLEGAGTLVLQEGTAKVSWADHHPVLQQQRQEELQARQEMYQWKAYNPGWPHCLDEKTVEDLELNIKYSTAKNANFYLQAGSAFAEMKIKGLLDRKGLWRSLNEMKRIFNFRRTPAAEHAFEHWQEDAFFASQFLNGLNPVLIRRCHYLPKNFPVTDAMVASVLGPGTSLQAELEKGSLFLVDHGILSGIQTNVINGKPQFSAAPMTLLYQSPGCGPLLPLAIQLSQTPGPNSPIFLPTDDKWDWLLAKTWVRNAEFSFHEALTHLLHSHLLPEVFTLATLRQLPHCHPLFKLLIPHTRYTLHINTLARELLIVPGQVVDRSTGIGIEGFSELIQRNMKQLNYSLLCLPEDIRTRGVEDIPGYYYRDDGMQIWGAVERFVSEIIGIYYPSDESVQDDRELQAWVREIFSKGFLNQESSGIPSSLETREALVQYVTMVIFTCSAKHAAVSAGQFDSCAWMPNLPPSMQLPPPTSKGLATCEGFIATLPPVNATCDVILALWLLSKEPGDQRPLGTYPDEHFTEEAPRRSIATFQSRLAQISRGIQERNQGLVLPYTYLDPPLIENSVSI
The assay is described as follows: Sandwich ELISA of Labelox B biotinylation in A549 cell lysate, 15-LOX-2 capture. Format: biochemical. The following applies: HRP-streptavidin detection, read-out: EC50 of labeling. As for the experimental part: Labelox B efficiently labels endogenous LOXs. Lipoxygenase labeling by Labelox B was investigated using cell‐based assays. As a first step, labeling efficiency was estimated in intact RAW 264.7 macrophage cells that were treated with Labelox B in concentrations ranging between 1 μM and 100 μM with incubation times between 0.5 h and 6 h. […] As a next step, a sandwich ELISA assay was established in order to find proof that probe Labelox B is indeed labeling proteins with lipoxygenase enzyme activity. Towards this aim, A549 cell lysates were treated with sub‐micromolar to micromolar concentrations of Labelox B. Subsequently, the endogenous LOXs were captured on an anti‐LOX antibody precoated 96‐well plate followed by detection of Labelox B mediated biotinylation using HRP‐conjugated streptavidin. […] Furthermore, probe Labelox B enabled visualization of localized LOX activity in living cells (Figure 2 c). […] The fluorescence intensity increased with increasing doses of Labelox B and labeling was observed throughout the cells in the cytoplasm and the nucleus of A549.
Figure 2 Labelox B labels endogenous LOXs in a dose‐ and time‐dependent manner. a, b) Western blot analysis of Labelox B labeled LOXs in intact RAW 264.7 for indicated doses and time points. […] The pictures were captured by a Leica DM4000b fluorescence microscope.
For orientation: ELISA stands for enzyme-linked immunosorbent assay.

For a further assay, the target named is T2, 15-LOX-1 (Homo sapiens, UniProt P16050).
T2 sequence (P16050 1-662): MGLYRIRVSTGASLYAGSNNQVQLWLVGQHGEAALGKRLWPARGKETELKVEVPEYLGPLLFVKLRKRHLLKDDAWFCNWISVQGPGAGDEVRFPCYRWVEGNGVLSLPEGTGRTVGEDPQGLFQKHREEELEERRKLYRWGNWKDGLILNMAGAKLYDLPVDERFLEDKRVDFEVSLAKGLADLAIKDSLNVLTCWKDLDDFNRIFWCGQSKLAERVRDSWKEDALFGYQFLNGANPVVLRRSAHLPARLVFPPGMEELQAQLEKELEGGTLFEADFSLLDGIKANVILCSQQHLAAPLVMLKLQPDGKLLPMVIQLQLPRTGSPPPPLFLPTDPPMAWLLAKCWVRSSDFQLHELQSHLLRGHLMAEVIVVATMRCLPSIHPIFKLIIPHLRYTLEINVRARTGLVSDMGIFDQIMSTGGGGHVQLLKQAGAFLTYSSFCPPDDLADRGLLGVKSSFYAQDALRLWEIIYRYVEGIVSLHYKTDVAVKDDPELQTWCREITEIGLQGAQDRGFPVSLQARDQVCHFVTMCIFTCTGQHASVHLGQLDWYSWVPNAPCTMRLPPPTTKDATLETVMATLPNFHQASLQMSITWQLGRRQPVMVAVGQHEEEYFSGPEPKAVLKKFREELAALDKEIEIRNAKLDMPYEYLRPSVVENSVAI
The assay is described as follows: Kitz-Wilson kinetic analysis of 15-LOX-1 inactivation. Format: biochemical. Also noted: His-tag (N); made in house; host or cells: E. coli BL21(DE3). As for the experimental part:
Subsequently, Kitz‐Wilson analysis was performed to distinguish the equilibrium binding constant (K i) from the rate of covalent inactivation (k i). The different bis‐alkynes provided remarkably constant k i’s that varied by a factor 3 or less, whereas the K i’s varied by a factor 200 (Table 1). […] Improved non‐covalent binding is an important characteristic for activity‐based labeling because it implies improved specific recognition properties to the target of interest. Therefore, inhibitor 3 has been used for further development of a probe for activity‐based labeling of lipoxygenase activity with 15‐LOX‐1 as a reference enzyme. For convenient discussion, we named inhibitor 3, “Labelox B”. […]
described in the IC50 determination assay. Michaelis-Menten plots, Lineweaver-Burk plots, Km, and Vmax, are generated using GraphPad Prism 8.3.0.
1.5. Kits-Wilson kinetic analysis
The probes inhibit the 15-LOX-1 enzyme with a two-step reaction. First, a probe binds to an enzyme to get a reversible complex, E*I. The dissociation constant of inhibitor (Ki) is from the formation of E*I. Then, the probe forms a covalent bond with the enzyme, which generates an irreversible complex, E-I. The inactivation rate constant (ki) is to describe the rate of E-I generation. To determine these inactivation parameters, Kitz-Wilson analysis was employed. The procedure has been detailed previously

Turning to `O=c1cc(-c2ccccc2)oc2cc(O)c(O)c(O)c12` [Baicalein], the IC50 in the assay on LOXs was below 4 µM.

For the molecule `CCCCCC#CCC#CCOC(=O)CCCC[C@@H]1SC[C@@H]2NC(=O)N[C@@H]21` [Labelox B (3)], the EC50 at 15-LOX-2 was around 3.5 µM. For the same molecule, the “k i (rate of covalent inactivation)” value on 15-LOX-1 was 0.0191 ± 0.0038 min⁻¹. Also, the Ki on 15-LOX-1 (read-out: K i (equilibrium binding constant)) amounted to 0.5 ± 0.14 µM.
